According to patent US11773127B2, “Compounds and methods for treating bacterial infections” (Washington University, priority 2017, dated 2023):
≈ marks a conversion by molar mass, not a printed value. Read-outs that look alike come from different tables or passages of the source.

What was measured:
FmlHLD [1] = target: T1, FmlHLD (Escherichia coli, UniProt P77588); assay: biochemical; format: binding, E. coli; conditions: for inhibitory potency against FmlH, in words: ELISA-based competition assay
T1 construct: 6xHis (C); made in house; host or cells: E. coli C600, periplasm, pTRC99a
T1 sequence (P77588 25-182): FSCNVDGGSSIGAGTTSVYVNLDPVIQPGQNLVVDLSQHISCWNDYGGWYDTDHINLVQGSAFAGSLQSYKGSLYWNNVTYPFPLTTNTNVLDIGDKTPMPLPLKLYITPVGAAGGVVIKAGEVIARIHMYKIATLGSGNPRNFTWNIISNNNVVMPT
How it was run: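 Sialidase-treated bovine submaxillary mucin (ds-BSM) coated wells, BSA-blocked, then biotinylated FmlH^LD (20 μg/mL) with or without compound for 1 h at room temperature. Bound lectin detected by streptavidin-HRP/TMB, A450.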

[2] = Mouse pharmacokinetics, IP injection; conditions: 20 mg/kg IP
Experimental: These studies were conducted via 20 mg/kg intraperitoneal (IP) injection to inform planned future IP studies in murine studies of chronic UTI, which require a single IP dose of galactoside to persist in the plasma for 6 hours prior to measurement of bladder bacterial burdens (FIG. 17)^22.

[3] = Mouse liver microsome stability; format: in vitro ADME
Experimental: (§1) These compounds were assessed for their stability in simulated gastric fluid (SGF), simulated intestinal fluid (SIF), mouse liver microsomes, and blood plasma (Table 7). […] These findings are consistent with our earlier characterization of FimH antagonists (mannosides).

[4] = Stability in simulated intestinal fluid (SIF); format: in vitro ADME
Experimental: as §1

[5] = Stability in simulated gastric fluid (SGF); format: in vitro ADME
Experimental: as §1

Mouse plasma stability = format: in vitro ADME
Experimental: as §1

Kinetic solubility = format: physicochemical
[6] = Rat pharmacokinetics, plasma and urine, IV and PO; format: in vivo; conditions: for bioavailability: in vivo, 10 mg/kg PO vs 3 mg/kg IV, read-out: oral bioavailability (F); for bioavailability / renal clearance to the urine: rat
Experimental: In this example, the concentration of compounds 3086 and 3090 in rat plasma and urine following either a 10 mg/kg oral dose (PO; circular dots) or a 3 mg/kg intravenous dose (IV; square dots) was determined (FIG. 16, panel A (3086) and panel B (3090)). […] Thus, the metabolic stability of these compounds and clearance of these compounds has no relation to the permeability (oral or otherwise) of compounds. The highly polar nature of these molecules containing the sugar GalNAc and multiple polar functionalities precludes their permeability in the gut.

FmlHLD [7] = target: T1, FmlHLD; assay: biochemical; format: binding, E. coli
Excerpt: Bio-layer interferometry (BLI) was used to quantitate the binding affinity of select galactosides to FmlH.
Thereafter, pins were dipped in PBS for 120 s and transferred to protein samples (varying concentration of FmlHLD or fixed concentration of FmlHLD with varying concentration of galactoside compounds) for association for 300-600 s.

[8] = IC50 (μM), Table 6, sulfonamides 3078-3090
[9] = rat plasma, 10 mg/kg PO or 3 mg/kg IV

Compound	Mouse liver microsomes (t1/12 min) [3] [min]	SIF % remaining 2 h [4] [%]	SGF % remaining 6 h [5] [%]	Mouse plasma % remaining 2 h (Mouse plasma stability) [%]	solubility kinetic (Kinetic solubility) [µM]	IC50 (FmlHLD [1]; [8]) [µM]	solubility kinetic (Kinetic solubility; kinetic from dmso stock) [µM]	further results
CC(=O)N[C@H]1[C@H](Oc2cccc(C)c2-c2cccc(NS(C)(=O)=O)c2)O[C@H](CO)[C@H](O)[C@@H]1O [Compound 3084, N-((2S,3R,4R,5R,6R)-4,5-dihydroxy-6-(hydroxymethyl)-2-((6-methyl-3′-(methylsulfonamido)-[1,1′-biphenyl]-2-yl)oxy)tetrahydro-2H-pyran-3-yl)acetamide]	>145	100.00	100.00	100.00	195 (≈ 93.7 µg/mL)	–	–	IC50 (FmlHLD [1]; IC50): 0.12 µM; IC50 (FmlHLD [1]; IC50 equated to a concentration, conversion of IC50 of 120 nM): 0.12 µM; Cmax [2]: 7897 ng/mL; calculated AUC [2]: 6300 ng·h/mL; compound exposure at 8 h [2]: moderate compound exposure; half-life, t1/2 [2]: 1.13 h
Cc1cccc(O[C@@H]2OC(CO)[C@H](O)[C@H](O)[C@@H]2NC(=O)C(F)(F)F)c1-c1cccc(NS(C)(=O)=O)c1 (stereo partly drawn) [Compound 3088, N-((2S,3S,4R,5R)-4,5-dihydroxy-6-(hydroxymethyl)-2-((6-methyl-3′-(methylsulfonamido)-[1,1′-biphenyl]-2-yl)oxy)tetrahydro-2H-pyran-3-yl)-2,2,2-trifluoroacetimidic acid]	>145	89.15	90.95	88.9	–	0.11	164 (≈ 87.7 µg/mL)	–
CC(=O)N[C@H]1[C@H](Oc2cccc(F)c2-c2cccc(NS(C)(=O)=O)c2)O[C@H](CO)[C@H](O)[C@@H]1O [Compound 3080, N-((2S,3R,4R,5R,6R)-2-((6-fluoro-3′-(methylsulfonamido)-[1,1′-biphenyl]-2-yl)oxy)-4,5-dihydroxy-6-(hydroxymethyl)tetrahydro-2H-pyran-3-yl)acetamide]	>145	93.79	91.95	89.1	197 (≈ 95.4 µg/mL)	0.15	–	–
CC(=O)N[C@@H]1[C@H](Oc2cccc(C(F)(F)F)c2-c2cccc(NS(C)(=O)=O)c2)OC(CO)[C@H](O)[C@@H]1O (stereo partly drawn) [Compound 3090, N-((2S,3S,4R,5R)-4,5-dihydroxy-6-(hydroxymethyl)-2-((3′-(methylsulfonamido)-6-(trifluoromethyl)-[1,1′-biphenyl]-2-yl)oxy)tetrahydro-2H-pyran-3-yl)acetamide]	>145	91.9	89.25	92.2	–	–	197 (≈ 105 µg/mL)	inhibitory potency against FmlH, in words (FmlHLD [1]): highest potency of the compounds tested; IC50 (FmlHLD [1]; IC50): 0.085 µM; bioavailability [6]: < 1%; renal clearance to the urine [6]: low renal clearance to the urine; half-life [6, 9]: 1.16 h; clearance ([6]; rat plasma, 10 mg/kg PO or 3 mg/kg IV, read-out: clearance (Cl)): 57 mL/min/kg
CC(=O)N[C@@H]1[C@H](Oc2cccc(C#N)c2-c2cccc(NS(C)(=O)=O)c2)OC(CO)[C@H](O)[C@@H]1O (stereo partly drawn) [Compound 3079, N-((2S,3S,4R,5R)-2-((6-cyano-3′-(methylsulfonamido)-[1,1′-biphenyl]-2-yl)oxy)-4,5-dihydroxy-6-(hydroxymethyl)tetrahydro-2H-pyran-3-yl)acetamide]	>145	100.00	86.77	89.1	–	0.11	196 (≈ 96.3 µg/mL)	–
CC(=O)N[C@H]1[C@H](Oc2cccc(C)c2-c2cccc(NS(=O)(=O)C3CC3)c2)O[C@H](CO)[C@H](O)[C@@H]1O [Compound 3086, N-((2S,3R,4R,5R,6R)-2-((3′-(cyclopropanesulfonamido)-6-methyl-[1,1′-biphenyl]-2-yl)oxy)-4,5-dihydroxy-6-(hydroxymethyl)tetrahydro-2H-pyran-3-yl)acetamide]	>145	100.00	100.00	84.1	196 (≈ 99.3 µg/mL)	0.12	–	inhibitory potency against FmlH, in words (FmlHLD [1]): retain the same activity as the methyl sulfonamides; bioavailability [6]: < 1%; renal clearance to the urine [6]: low renal clearance to the urine; clearance (Cl) [6, 9]: 43.8 mL/min/kg; t1/2 [6, 9]: 1.46 h
O=C(O)c1cccc(-c2ccccc2O[C@@H]2O[C@H](CO)[C@H](O)[C@H](O)[C@H]2O)c1 [Compound 29β, 2′-(α/β-D-galactopyranosyloxy)-[1,1′-Biphenyl]-3-carboxylic acid]	–	–	–	–	–	–	–	PI10 (percent inhibition) (FmlHLD [1]; galactoside at 10 μM, mean with standard error of the mean, 10 µM): 75.1 ± 1.0%; inhibition at 1 µM (FmlHLD [1]; read-out: PI1 (percent inhibition), galactoside at 1 μM, mean with standard error of the mean): 22.9 ± 5.1%; inhibition at 10 µM (FmlHLD [1]; read-out: PI10 (percent inhibition), galactoside at 10 μM, mean with standard error of the mean): 75%; inhibition at 100 µM (FmlHLD [1]; read-out: PI100 (percent inhibition), galactoside at 100 μM, mean with standard error of the mean): 99%; enhancement in binding affinity relative to Gal (FmlHLD [7]; BLI Kd ratio): ~330 fold
OC[C@H]1O[C@@H](Oc2cc3c(O)cc(O)cc3[o+]c2-c2ccc(O)c(O)c2)[C@H](O)[C@@H](O)[C@H]1O [CG, reference compound]	–	–	–	–	–	–	–	inhibition at 100 µM (FmlHLD [1]; read-out: % Inhibition at [μM] [100], compound at 100 μM, inhibition of FmlHLD binding to ds-BSM): 28.8%; Kd (FmlHLD [7]; Kd): 212000 nM
